Laboratory results from ChEMBL document CHEMBL1201862, “PubChem BioAssay data set” (2004).
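Five compound concentrations were applied to cells in 96-well plates for 48 hours; endpoints were derived by simple linear interpolation of the resulting dose-response curve. GI50 = concentration required for 50% inhibition of growth.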 The source made the active and inactive calls. Rule as the data show it: active = GI50 up to about 1.1 µM and inactive = higher.

Columns and labels:
Assay in all cases: NCI-60 cell line screen, 48 h
RXF 393 = test system: RXF 393
SF-539 = test system: SF-539
IGROV-1 = test system: IGROV-1
KM12 = test system: KM12
K562 = test system: K562
HT-29 = test system: HT-29
U-251 = test system: U-251
HCT-15 = test system: HCT-15
HCT-116 = test system: HCT-116
COLO 205 = test system: COLO 205
OVCAR-8 = test system: OVCAR-8
OVCAR-4 = test system: OVCAR-4
SNB-19 = test system: SNB-19
SK-MEL-2 = test system: SK-MEL-2
UACC-62 = test system: UACC-62
NCI-H23 = test system: NCI-H23
OVCAR-5 = test system: OVCAR-5
HCC 2998 = test system: HCC 2998
ACHN = test system: ACHN
TK-10 = test system: TK-10

| Compound | GI50 (RXF 393) | GI50 (SF-539) | GI50 (IGROV-1) | GI50 (KM12) | GI50 (K562) | GI50 (HT-29) | GI50 (U-251) | GI50 (HCT-15) | GI50 (HCT-116) | GI50 (COLO 205) | GI50 (OVCAR-8) | GI50 (OVCAR-4) | GI50 (SNB-19) | GI50 (SK-MEL-2) | GI50 (UACC-62) | GI50 (NCI-H23) | GI50 (OVCAR-5) | GI50 (HCC 2998) | GI50 (ACHN) | GI50 (TK-10) |
| --- | --- | --- | --- | --- | --- | --- | --- | --- | --- | --- | --- | --- | --- | --- | --- | --- | --- | --- | --- | --- |
| Cc1c2ccncc2cc2c1[nH]c1ccccc12 | 2.68 µM (inactive) | 2.48 µM (inactive) | 6.22 µM (inactive) | 4.56 µM (inactive) | 3.48 µM (inactive) | 4.42 µM (inactive) | 2.86 µM (inactive) | 4.2 µM | 2.44 µM (inactive) | 1.64 µM (inactive) | 3.44 µM (inactive) | 6.12 µM (inactive) | 5.71 µM (inactive) | 7.43 µM (inactive) | 5.11 µM (inactive) | 4.08 µM (inactive) | 4.34 µM (inactive) | 5.04 µM (inactive) | – | – |
| COC1OC(=O)[C@H]2O[N+]([O-])=C(C)[C@@H]12 (stereo partly drawn) | > 100 µM (inactive) | > 100 µM (inactive) | > 100 µM (inactive) | > 100 µM (inactive) | > 100 µM (inactive) | > 100 µM (inactive) | > 100 µM (inactive) | > 100 µM | > 100 µM (inactive) | > 100 µM (inactive) | > 100 µM (inactive) | > 100 µM (inactive) | > 100 µM (inactive) | > 100 µM (inactive) | > 100 µM (inactive) | > 100 µM (inactive) | > 100 µM (inactive) | > 100 µM (inactive) | – | – |
| Cc1cc(N(CCC#N)S(=O)(=O)c2ccccc2)ccc1/C=N\c1cccc(C(=O)O)c1 | > 100 µM (inactive) | > 100 µM (inactive) | > 100 µM (inactive) | – | 71 µM (inactive) | > 100 µM (inactive) | > 100 µM (inactive) | > 100 µM | > 100 µM (inactive) | > 100 µM (inactive) | > 100 µM (inactive) | > 100 µM (inactive) | > 100 µM (inactive) | > 100 µM (inactive) | > 100 µM (inactive) | > 100 µM (inactive) | > 100 µM (inactive) | > 100 µM (inactive) | > 100 µM (inactive) | > 100 µM (inactive) |
| CN(C)c1n/c(=N/c2ccc(/N=c3\nc(N(C)C)ss3)cc2)ss1 | 16.5 µM (inactive) | 35.4 µM (inactive) | 27.5 µM (inactive) | 47.3 µM (inactive) | 11.7 µM (inactive) | 21.9 µM (inactive) | 29.9 µM (inactive) | 27 µM | 15.1 µM (inactive) | 28.2 µM (inactive) | 16.7 µM (inactive) | 20 µM (inactive) | 32.4 µM (inactive) | 69.5 µM (inactive) | 3.38 µM (inactive) | 12.4 µM (inactive) | > 100 µM (inactive) | > 83 µM (inactive) | 36.9 µM (inactive) | 24.2 µM (inactive) |
| CCOc1cc(/C=N\O)cc(/C=N/O)c1O | 14.5 µM (inactive) | 24 µM (inactive) | – | 54.3 µM (inactive) | 61.5 µM (inactive) | 29.4 µM (inactive) | 25.6 µM (inactive) | 31.3 µM | 38.5 µM (inactive) | 22.8 µM (inactive) | 25.2 µM (inactive) | 42.6 µM (inactive) | 39.2 µM (inactive) | 18.1 µM (inactive) | 50.7 µM (inactive) | 30 µM (inactive) | 50.6 µM (inactive) | 56.5 µM (inactive) | 22.7 µM (inactive) | > 100 µM (inactive) |
| COc1ccccc1NC(=O)/C(=C/c1ccccc1)C(C)=O | 20.7 µM (inactive) | 23.6 µM (inactive) | 53 µM (inactive) | 36.9 µM (inactive) | 27.6 µM (inactive) | 32.3 µM (inactive) | 4.47 µM (inactive) | 37.2 µM | 43.3 µM (inactive) | – | 37.4 µM (inactive) | 64.4 µM (inactive) | 47.3 µM (inactive) | 38.5 µM (inactive) | 32.9 µM (inactive) | 19.1 µM (inactive) | > 100 µM (inactive) | 36.1 µM (inactive) | 41.5 µM (inactive) | 44.9 µM (inactive) |
| COc1ccc(C2COc3cc(O)c(O)cc3C2)cc1 (stereo not drawn) | 6.87 µM (inactive) | 30.1 µM (inactive) | 16.7 µM (inactive) | 39.7 µM (inactive) | 9.08 µM (inactive) | 40.7 µM (inactive) | 13.7 µM (inactive) | 10.2 µM | 11.3 µM (inactive) | 10.6 µM (inactive) | 13.3 µM (inactive) | 12.1 µM (inactive) | 24.8 µM (inactive) | 54.6 µM (inactive) | 14.1 µM (inactive) | 17.7 µM (inactive) | 148 µM (inactive) | 21.4 µM (inactive) | – | – |
| FC(F)(F)C(C1=NC(C(F)(F)F)(C(F)(F)F)N=C(N2CCOCC2)O1)C(F)(F)F | 15.7 µM (inactive) | 22.4 µM (inactive) | 19.6 µM (inactive) | 39.3 µM (inactive) | – | 18.7 µM (inactive) | 19.9 µM (inactive) | 26.1 µM | 27.7 µM (inactive) | 14.3 µM (inactive) | 15.3 µM (inactive) | 22.9 µM (inactive) | 25.9 µM (inactive) | 22.2 µM (inactive) | 13.5 µM (inactive) | > 10 µM (inactive) | 18.1 µM (inactive) | 41.5 µM (inactive) | 17.4 µM (inactive) | 28.7 µM (inactive) |
| N#CC1(C#N)C2C=CC(C3CCC=C32)C1(C#N)C#N (stereo not drawn) | > 10 µM (inactive) | > 10 µM (inactive) | > 10 µM (inactive) | > 10 µM (inactive) | 3.37 µM (inactive) | > 10 µM (inactive) | > 10 µM (inactive) | > 10 µM | > 6.56 µM (inactive) | 1.94 µM (inactive) | > 10 µM (inactive) | > 10 µM (inactive) | > 10 µM (inactive) | > 10 µM (inactive) | > 10 µM (inactive) | > 10 µM (inactive) | > 10 µM (inactive) | > 10 µM (inactive) | > 6.37 µM (inactive) | > 5.7 µM (inactive) |
| NC1CCCCC1.O=P(O)(O)C(CSc1ccccc1)P(=O)(O)O | > 100 µM (inactive) | > 100 µM (inactive) | > 100 µM (inactive) | > 100 µM (inactive) | > 100 µM (inactive) | > 100 µM (inactive) | > 100 µM (inactive) | > 100 µM | > 100 µM (inactive) | > 100 µM (inactive) | > 100 µM (inactive) | > 100 µM (inactive) | > 100 µM (inactive) | > 100 µM (inactive) | > 100 µM (inactive) | > 100 µM (inactive) | > 100 µM (inactive) | > 100 µM (inactive) | – | – |
